From US10232058B2, “Prostate-specific membrane antigen-targeted photosensitizers for photodynamic therapy” (THE JOHNS HOPKINS UNIVERSITY, priority 2013, dated 2019)

Molecular target: PSMA (Homo sapiens, UniProt Q04609)
Test: fluorescence-based PSMA binding assay
Settings: read-out: PSMA binding affinity Ki

Chain of PSMA (Q04609 whole entry): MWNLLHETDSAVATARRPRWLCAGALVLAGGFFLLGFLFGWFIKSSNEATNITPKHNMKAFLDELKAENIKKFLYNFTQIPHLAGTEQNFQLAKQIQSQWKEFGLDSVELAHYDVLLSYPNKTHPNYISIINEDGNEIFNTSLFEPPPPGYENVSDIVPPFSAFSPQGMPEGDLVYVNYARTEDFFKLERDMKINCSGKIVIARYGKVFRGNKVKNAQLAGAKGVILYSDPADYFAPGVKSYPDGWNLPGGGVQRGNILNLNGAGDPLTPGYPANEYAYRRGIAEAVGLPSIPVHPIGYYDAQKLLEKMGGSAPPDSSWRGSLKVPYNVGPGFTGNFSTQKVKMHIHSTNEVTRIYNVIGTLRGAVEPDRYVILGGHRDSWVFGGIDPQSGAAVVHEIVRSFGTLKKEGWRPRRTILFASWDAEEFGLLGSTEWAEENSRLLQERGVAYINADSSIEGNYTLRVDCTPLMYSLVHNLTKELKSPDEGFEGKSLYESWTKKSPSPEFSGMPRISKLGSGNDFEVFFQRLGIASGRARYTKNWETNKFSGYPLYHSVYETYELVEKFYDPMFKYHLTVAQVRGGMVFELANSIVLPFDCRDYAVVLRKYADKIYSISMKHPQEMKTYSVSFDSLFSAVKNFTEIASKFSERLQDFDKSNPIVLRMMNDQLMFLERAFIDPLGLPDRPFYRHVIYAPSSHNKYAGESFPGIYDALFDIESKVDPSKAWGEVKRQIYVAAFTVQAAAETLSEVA

Ki: 1.2 nM
Structure (SMILES): C=Cc1c(C)c2cc3nc(c4c5[nH]c(cc6nc(cc1[nH]2)C(C)=C6CC)c(C)c5C(=O)C4)[C@H](CCC(=O)NCCCCC(NC(=O)CCCCCCC(=O)NCCCC[C@H](NC(=O)N[C@@H](CCC(=O)O)C(=O)O)C(=O)O)C(=O)O)[C@H]3C (stereo partly shown) [YC-6]
